Legend:
HepG2 cells [1] = assay: JC-1 staining assay of mitochondrial membrane potential; type: cell-based, human
Procedure: Detection of mitochondrial membrane potential by JC-1 staining
1inoculate the logarithmic growth cell digestion into the six-hole plate, the next day, after the cells adhered to the wall, according to the group set up to add the corresponding drug medium, and set up a negative control group at the same time;
(2) the cell concentration was collected and adjusted to 1 × 10^6 / ml by PBS washing (centrifugation 2000rpm for 5 min);
(3) 100 μ L 10 × Incubation Buffer and 900 μ L sterilized deionized water were diluted to 1 × Incubation buffer, and then preheated to 37 ℃;
(4) 500 μ L 1 × Incubation buffer was absorbed and 1 μ L JC-1 was added to prepare JC-1 […]
(5) the cells were incubated in a incubator containing CO 2 at 37 ℃ for 15 ~ 20 min with […]
(6) the cells were collected by centrifugation at room temperature for 5 min and washed twice with 1 × Incubation Buffer.
(7) resuspension cells of 500 μ L 1 × Incubation Buffer;
(8) on the computer test. […]

HepG2 cells [2] = assay: Calcium content detection (Fluo-3 probe, flow cytometry); type: cell-based, human; details: for Mean (calcium, Fluo-3 fluorescence): 72 h
Procedure: Calcium content detection
(1) inoculate the logarithmic growth cells into the six-hole plate. The next day, after the cells are adhered to the wall, according to the group . The culture medium containing medicine was added and the negative control group was set up at the same time.
(§1) (2) after 72 hours of treatment, the cells were digested with 0.25% trypsin (excluding […]
(§2) (3) 5 × 10 ~ 5 cells were collected by PBS washing cells twice (centrifugation 2000rpm for 5 […]
(4) adding 5 μ M Fluo-3 probe and mixing it to 37 degrees to avoid light for 30 min;

HepG2 cells [3] = assay: Morphological observation of HepG2 cells; type: cell-based, human; details: 6.25, 25 and 50 μM
Procedure: The mortality rate of HepG2 cells was increasing faster on higher concentration of compound 1. The inhibition of cell proliferation strengthened over time. […] The cells became round, the volume became smaller and the refraction decreased. When the cells were treated with high concentration of compound 1, the cells were suspended and shed. The cells no longer adhered to the wall. They gradually became round, and the membrane ruptured, shrank and finally lost vitality.

HepG2 cells [4] = assay: Annexin-V FITC/PI double staining for apoptosis (flow cytometry); type: cell-based, human; details: 72 h
Procedure: After treating HepG2 cells with three concentrations of compound 1 for 72 h, flow cytometry was used to detect the apoptosis rate changes. […]
(§3) Detection of apoptosis by Annexin-V FITC/PI double staining
(1) inoculate the logarithmic growth cells into the six-hole plate. The next day, after the cells are adhered to the wall, according to the group . […]
as §1, §2
(4) adding 500 μ L Binding Buffer suspension cells;
(5) After adding 5 μ L Annexin V-FITC, adding 5 μ L Pi, mixing;
(6) at room temperature, no light, the reaction time was 5 ~ 15 min, and the apoptosis was detected by flow cytometry. […]

LO2 cells = assay: MTT assay, toxic effect on normal liver cells LO2; type: cell-based; details: in vitro
Procedure: As shown in Figure 1 and Table 1, compounds 1–16 were evaluated for their inhibitory effects on the proliferation of HepG2 and LO2 cells by MTT assay. […] It provided the experimental basis for the subsequent synthesis of attenuating and improving urushiol derivatives.
Detection of cell proliferation by MTT
MTT assay was used to determine the inhibitory effect of the sample on the proliferation of HepG2 cells. The tumor cells of logarithmic growth stage were inoculated with 3.5 * 103 / well in 96 well culture plate. 0.2 ml/pore system was cultured for 72 h with different concentrations of samples. Then 20μL(final concentration 0.5 mg / mL) of MTT were added to each pore for 4 h. The supernatant was carefully adsorbed, DMSO 0.15 mL was added to each pore, and oscillatory mixing was carried out. The absorbance (A) value at 490 nm wavelength was measured by enzyme labeling instrument. The inhibition rate of cell proliferation was calculated as follows: [(A value of negative control group-A value of blank group)-(A value of experimental group A value of blank group)] / (negative pair group A-A value of blank group) × 100.Statistical method. The statistical analysis was carried out by SPSS 17.0 statistical software. The measured data were described by x ±s, and the mean of the two samples was compared with t test (P < 0. 05).
Materials and methods: Main reagents and instruments […]
Full-range rainbow […]
The HepG2 cells were cultured in a saturated humidity incubator with 90% […]
Jiangsu Kaiji Biotechnology Co., Ltd. Main reagents and consumables Cell culture bottle […]
Cell proliferation measured by MTT
1) the cells were digested and counted, the cell suspension was prepared by 3 x 10^4 /ml, and 100 micron L cell suspension was added to each hole in the 96 hole cell culture plate.
2) 96 hole cell culture plate was placed in 37, 5%, CO2 culture box for 24 hours.
3) use the medium to dilute the drug to the desired working fluid concentration, add 100 micron l per hole to the corresponding drug medium, and establish a negative control group and a positive control group (paclitaxel, 20ug/ml).
4) 96 hole cell culture plate was placed at 37 ℃ and 5% CO2 incubator for 72 hours.
5) 96 hole board for MTT staining, lambda =490nm, OD value determination; a. 20 μL MTT (5mg/ml) per hole was added to the culture box for 4 hours. b. discarding the supernatant, adding 150 μL DMSO for each hole, and gently mixing the […]
c. lambda =490nm, ELISA od readout per hole, the inhibition rate was calculated.
6) calculate the inhibition rate of each group.The inhibition rate (%) = (negative control group OD value of experimental group / OD) negative control group OD x 100% […]
7 check the machine and record the red fluorescence at the excitation wavelength of 488nm.
as §3
(1) inoculate the logarithmic growth cells into the six-hole plate. The next day, after the cells are adhered to the wall, according to the group . The culture medium containing medicine was added and the negative control group was set up at the same time
as §1
(3) 5 × 10 ~ 5 cells were collected by PBS washing cells twice (centrifugation 2000rpm for 5

C/C=C\C=C\C/C=C\CCCCCCCc1cccc(O)c1O[Si](CCCS)(OC)OC [Compound 1]
UR % Gated (HepG2 cells [1]; HepG2, JC-1, 12 μM): 46.18% | Green Fluorescence (%) (LR % gated) (HepG2 cells [1]; HepG2, JC-1, 1 μm): 16.72% | Green Fluorescence (%) (LR % gated) (HepG2 cells [1]; HepG2, JC-1, 3 μm): 28.14% | Green Fluorescence (%) (LR % gated) (HepG2 cells [1]; HepG2, JC-1, 12 μm): 53.82% | Mean (calcium, Fluo-3 fluorescence) (HepG2 cells [2]; HepG2, 1 μm): 65.01 | Mean (calcium, Fluo-3 fluorescence) (HepG2 cells [2]; HepG2, 3 μm): 94.39 | Mean (calcium, Fluo-3 fluorescence) (HepG2 cells [2]; HepG2, 12 μm): 136.80 | intracellular calcium concentration (in words) (HepG2 cells [2]; HepG2, compared with blank control group): increased | proliferation of HepG2 cells by morphological observation (in words) (HepG2 cells [3]): gradually inhibited | Apoptosis (%) (HepG2 cells [4]; HepG2, 1 μm): 15.73% | LL (%) (HepG2 cells [4]; HepG2, 1 μm): 82.71% | LR (%) (HepG2 cells [4]; HepG2, 1 μm): 9.38% | UL (%) (HepG2 cells [4]; HepG2, 1 μm): 1.56% | UR (%) (HepG2 cells [4]; HepG2, 1 μm): 6.35% | Apoptosis (%) (HepG2 cells [4]; HepG2, 3 μm): 32.60% | LL (%) (HepG2 cells [4]; HepG2, 3 μm): 67.33% | LR (%) (HepG2 cells [4]; HepG2, 3 μm): 16.42% | UL (%) (HepG2 cells [4]; HepG2, 3 μm): 0.07% | UR (%) (HepG2 cells [4]; HepG2, 3 μm): 16.18% | Apoptosis (%) (HepG2 cells [4]; HepG2, 12 μm): 47.87% | LL (%) (HepG2 cells [4]; HepG2, 12 μm): 48.91% | LR (%) (HepG2 cells [4]; HepG2, 12 μm): 37.68% | UL (%) (HepG2 cells [4]; HepG2, 12 μm): 3.24% | UR (%) (HepG2 cells [4]; HepG2, 12 μm): 10.19% | IC50 (LO2 cells; Homo sapiens, L02, 72 h): 150 µM | IC50 (LO2 cells; 72 h): 151 µM
